These are literature values, as cited in patent publication US20070110909A1, “Reduction or elimination of microbial growth and biofouling of salted wet biomass byproducts” (priority 2005, published 2007).

The structures appear in SMILES notation.

The subject of one data set is rats, mice and hamsters. Particulars: fore-stomachs of rats.
Another data set concerns animal tests. The conditions noted are these: birth defects in rats.

Turning to `COc1ccc(O)c(C(C)(C)C)c1` [BHA, Butylated hydroxyanisole], the tumors in animals entry in the data set with rats, mice and hamsters is listed as “caused cancerous tumors”. Consider `Cc1cc(C(C)(C)C)c(O)c(C(C)(C)C)c1` [BHT, Butylated hydroxytoluene], for which, in the data set on animal tests, the “toxic effects in animal tests” value is “caused liver cancer and lung tumors, increased blood cholesterol, reduced growth rates and body weight”.
